Measurements as given in patent publication US5530126A, “Process for the preparation of substituted 6-(pyrazol-3yl)-1,4-benzoxazin-3-ones” (Monsanto Company, priority 1994, dated 1996).

What was measured:
Assay type in all cases: in vivo
Indian Mustard [1] = assay: Pre-emergence herbicide test; conditions: Brassica juncea, read-out: % plant inhibition (Inmu); for inhibition at 11210 g/ha: 11.21 kg/ha; for inhibition at 1120 g/ha: 1.12 kg/ha
Outline: (§1)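 Percent growth inhibition was rated roughly 10-14 days after treatment. Test compound, dissolved or suspended in acetone or water, had been applied to seeds placed on compacted topsoil, which was then covered with untreated soil and kept in the greenhouse.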

Seedling johnsongrass [2] = assay: Pre-emergence herbicide test; conditions: Sorghum halepense, read-out: % plant inhibition (Sejg); for inhibition at 11210 g/ha: 11.21 kg/ha; for inhibition at 1120 g/ha: 1.12 kg/ha
Outline: as §1

Velvetleaf [3] = assay: Pre-emergence herbicide test; conditions: Abutilon theophrasti, read-out: % plant inhibition (Vele); for inhibition at 11210 g/ha: 11.21 kg/ha; for inhibition at 1120 g/ha: 1.12 kg/ha
Outline: as §1

Downy Brome [4] = assay: Pre-emergence herbicide test; conditions: Bromus tectorum, read-out: % plant inhibition (Dobr); for inhibition at 11210 g/ha: 11.21 kg/ha; for inhibition at 1120 g/ha: 1.12 kg/ha
Outline: as §1

Wild buckwheat [5] = assay: Pre-emergence herbicide test; conditions: Fallopia convolvulus, read-out: % plant inhibition (Wibw); for inhibition at 11210 g/ha: 11.21 kg/ha; for inhibition at 1120 g/ha: 1.12 kg/ha
Outline: as §1

Cocklebur [6] = assay: Pre-emergence herbicide test; conditions: Xanthium strumarium, read-out: % plant inhibition (Cobu); for inhibition at 11210 g/ha: 11.21 kg/ha; for inhibition at 1120 g/ha: 1.12 kg/ha
Outline: as §1

Yellow nutsedge [7] = assay: Pre-emergence herbicide test; conditions: Cyperus, read-out: % plant inhibition (Yens); for inhibition at 11210 g/ha: 11.21 kg/ha; for inhibition at 1120 g/ha: 1.12 kg/ha
Outline: as §1

Barnyardgrass [8] = assay: Pre-emergence herbicide test; conditions: Echinochloa crus-galli, read-out: % plant inhibition (Bygr); for inhibition at 11210 g/ha: 11.21 kg/ha; for inhibition at 1120 g/ha: 1.12 kg/ha
Outline: as §1

Annual bluegrass [9] = assay: Pre-emergence herbicide test; conditions: read-out: % plant inhibition (Anbg); for inhibition at 11210 g/ha: 11.21 kg/ha; for inhibition at 1120 g/ha: 1.12 kg/ha
Outline: as §1

Morningglory [10] = assay: Pre-emergence herbicide test; conditions: Ipomoea, read-out: % plant inhibition (Mogl); for inhibition at 11210 g/ha: 11.21 kg/ha; for inhibition at 1120 g/ha: 1.12 kg/ha
Outline: as §1

Indian Mustard [11] = assay: Post-emergence herbicide test; conditions: Brassica juncea, read-out: % plant inhibition (Inmu); for inhibition at 11210 g/ha: 11.21 kg/ha; for inhibition at 1120 g/ha: 1.12 kg/ha
Outline: (§2)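 Scoring: percent inhibition relative to control, usually 11 days post-treatment, with a later look near 25 days in some instances. Plants had been grown in greenhouse pans for two to three weeks before atomizer spraying at 1870 L/Ha.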

Seedling johnsongrass [12] = assay: Post-emergence herbicide test; conditions: Sorghum halepense, read-out: % plant inhibition (Sejg); for inhibition at 11210 g/ha: 11.21 kg/ha; for inhibition at 1120 g/ha: 1.12 kg/ha
Outline: as §2

Velvetleaf [13] = assay: Post-emergence herbicide test; conditions: Abutilon theophrasti, read-out: % plant inhibition (Vele); for inhibition at 11210 g/ha: 11.21 kg/ha; for inhibition at 1120 g/ha: 1.12 kg/ha
Outline: as §2

Downy Brome [14] = assay: Post-emergence herbicide test; conditions: Bromus tectorum, read-out: % plant inhibition (Dobr); for inhibition at 11210 g/ha: 11.21 kg/ha; for inhibition at 1120 g/ha: 1.12 kg/ha
Outline: as §2

Wild buckwheat [15] = assay: Post-emergence herbicide test; conditions: Fallopia convolvulus, read-out: % plant inhibition (Wibw); for inhibition at 11210 g/ha: 11.21 kg/ha; for inhibition at 1120 g/ha: 1.12 kg/ha
Outline: as §2

Cocklebur [16] = assay: Post-emergence herbicide test; conditions: Xanthium strumarium, read-out: % plant inhibition (Cobu); for inhibition at 11210 g/ha: 11.21 kg/ha; for inhibition at 1120 g/ha: 1.12 kg/ha
Outline: as §2

Yellow nutsedge [17] = assay: Post-emergence herbicide test; conditions: Cyperus, read-out: % plant inhibition (Yens); for inhibition at 11210 g/ha: 11.21 kg/ha; for inhibition at 1120 g/ha: 1.12 kg/ha
Outline: as §2

Barnyardgrass [18] = assay: Post-emergence herbicide test; conditions: Echinochloa crus-galli, read-out: % plant inhibition (Bygr); for inhibition at 11210 g/ha: 11.21 kg/ha; for inhibition at 1120 g/ha: 1.12 kg/ha
Outline: as §2

Annual bluegrass [19] = assay: Post-emergence herbicide test; conditions: read-out: % plant inhibition (Anbg); for inhibition at 11210 g/ha: 11.21 kg/ha; for inhibition at 1120 g/ha: 1.12 kg/ha
Outline: as §2

Morningglory [20] = assay: Post-emergence herbicide test; conditions: Ipomoea, read-out: % plant inhibition (Mogl); for inhibition at 11210 g/ha: 11.21 kg/ha; for inhibition at 1120 g/ha: 1.12 kg/ha
Outline: as §2

Compound | inhibition at 1120 g/ha (Indian Mustard [1]) | inhibition at 1120 g/ha (Seedling johnsongrass [2]) | inhibition at 1120 g/ha (Velvetleaf [3]) | inhibition at 1120 g/ha (Downy Brome [4]) | inhibition at 1120 g/ha (Wild buckwheat [5]) | inhibition at 1120 g/ha (Cocklebur [6]) | inhibition at 1120 g/ha (Yellow nutsedge [7]) | inhibition at 1120 g/ha (Barnyardgrass [8]) | inhibition at 1120 g/ha (Annual bluegrass [9]) | inhibition at 1120 g/ha (Morningglory [10]) | inhibition at 1120 g/ha (Indian Mustard [11]) | inhibition at 1120 g/ha (Seedling johnsongrass [12]) | inhibition at 1120 g/ha (Velvetleaf [13]) | inhibition at 1120 g/ha (Downy Brome [14]) | inhibition at 1120 g/ha (Wild buckwheat [15]) | inhibition at 1120 g/ha (Cocklebur [16]) | inhibition at 1120 g/ha (Yellow nutsedge [17]) | inhibition at 1120 g/ha (Barnyardgrass [18]) | inhibition at 1120 g/ha (Annual bluegrass [19]) | inhibition at 1120 g/ha (Morningglory [20]) | other results
Cc1cc(-c2c(Cl)c(C(F)(F)F)nn2C)c(F)cc1Cl [Compound 63] | – | – | – | – | – | – | – | – | – | – | – | – | – | – | – | – | – | – | – | – | inhibition at 11210 g/ha (Indian Mustard [1]): 100%; inhibition at 11210 g/ha (Seedling johnsongrass [2]): 100%; inhibition at 11210 g/ha (Velvetleaf [3]): 100%; inhibition at 11210 g/ha (Downy Brome [4]): 100%; inhibition at 11210 g/ha (Wild buckwheat [5]): 100%; inhibition at 11210 g/ha (Cocklebur [6]): 60%; inhibition at 11210 g/ha (Yellow nutsedge [7]): 0%; inhibition at 11210 g/ha (Barnyardgrass [8]): 100%; inhibition at 11210 g/ha (Annual bluegrass [9]): 100%; inhibition at 11210 g/ha (Morningglory [10]): 100%; inhibition at 11210 g/ha (Indian Mustard [11]): 40%; inhibition at 11210 g/ha (Seedling johnsongrass [12]): 70%; inhibition at 11210 g/ha (Velvetleaf [13]): 100%; inhibition at 11210 g/ha (Downy Brome [14]): 20%; inhibition at 11210 g/ha (Wild buckwheat [15]): 100%; inhibition at 11210 g/ha (Cocklebur [16]): 0%; inhibition at 11210 g/ha (Yellow nutsedge [17]): 0%; inhibition at 11210 g/ha (Barnyardgrass [18]): 20%; inhibition at 11210 g/ha (Annual bluegrass [19]): 20%; inhibition at 11210 g/ha (Morningglory [20]): 100%
CC(=O)OCc1cc(-c2nn(C)c(C(F)(F)F)c2Cl)c(F)cc1Cl [Compound 121] | – | – | – | – | – | – | – | – | – | – | – | – | – | – | – | – | – | – | – | – | inhibition at 11210 g/ha (Indian Mustard [1]): 100%; inhibition at 11210 g/ha (Seedling johnsongrass [2]): 80%; inhibition at 11210 g/ha (Velvetleaf [3]): 100%; inhibition at 11210 g/ha (Downy Brome [4]): 70%; inhibition at 11210 g/ha (Wild buckwheat [5]): 100%; inhibition at 11210 g/ha (Cocklebur [6]): 60%; inhibition at 11210 g/ha (Yellow nutsedge [7]): 70%; inhibition at 11210 g/ha (Barnyardgrass [8]): 100%; inhibition at 11210 g/ha (Annual bluegrass [9]): 100%; inhibition at 11210 g/ha (Morningglory [10]): 100%; inhibition at 11210 g/ha (Indian Mustard [11]): 90%; inhibition at 11210 g/ha (Seedling johnsongrass [12]): 90%; inhibition at 11210 g/ha (Velvetleaf [13]): 100%; inhibition at 11210 g/ha (Downy Brome [14]): 90%; inhibition at 11210 g/ha (Wild buckwheat [15]): 100%; inhibition at 11210 g/ha (Cocklebur [16]): 90%; inhibition at 11210 g/ha (Yellow nutsedge [17]): 20%; inhibition at 11210 g/ha (Barnyardgrass [18]): 100%; inhibition at 11210 g/ha (Annual bluegrass [19]): 40%; inhibition at 11210 g/ha (Morningglory [20]): 100%
Cn1nc(-c2cc(OCc3ccccn3)c(Cl)cc2F)c(Cl)c1C(F)(F)F [Compound 251] | 20% | 70% | 60% | 80% | 90% | 30% | 0% | 0% | 50% | 40% | 70% | 100% | 100% | 100% | 90% | 90% | 10% | 90% | 80% | 100% | –
CC(O)c1cc(-c2nn(C)c(C(F)(F)F)c2Cl)c(F)cc1Cl (stereo not drawn) [Compound 107] | 80% | 40% | 90% | 30% | 80% | 20% | 0% | 80% | 20% | 100% | 40% | 20% | 90% | 0% | 90% | 50% | 10% | 30% | 0% | 50% | –
Cn1nc(C(F)F)c(Cl)c1-c1cc(F)ccc1F [Compound 62] | – | – | – | – | – | – | – | – | – | – | – | – | – | – | – | – | – | – | – | – | inhibition at 11210 g/ha (Indian Mustard [1]): 20%; inhibition at 11210 g/ha (Seedling johnsongrass [2]): 30%; inhibition at 11210 g/ha (Velvetleaf [3]): 60%; inhibition at 11210 g/ha (Downy Brome [4]): 0%; inhibition at 11210 g/ha (Wild buckwheat [5]): 20%; inhibition at 11210 g/ha (Cocklebur [6]): 0%; inhibition at 11210 g/ha (Yellow nutsedge [7]): 0%; inhibition at 11210 g/ha (Barnyardgrass [8]): 20%; inhibition at 11210 g/ha (Annual bluegrass [9]): 0%; inhibition at 11210 g/ha (Morningglory [10]): 30%; inhibition at 11210 g/ha (Indian Mustard [11]): 0%; inhibition at 11210 g/ha (Seedling johnsongrass [12]): 0%; inhibition at 11210 g/ha (Velvetleaf [13]): 10%; inhibition at 11210 g/ha (Downy Brome [14]): 0%; inhibition at 11210 g/ha (Wild buckwheat [15]): 0%; inhibition at 11210 g/ha (Cocklebur [16]): 0%; inhibition at 11210 g/ha (Yellow nutsedge [17]): 0%; inhibition at 11210 g/ha (Barnyardgrass [18]): 0%; inhibition at 11210 g/ha (Annual bluegrass [19]): 0%; inhibition at 11210 g/ha (Morningglory [20]): 0%
CCC(C)COC(=O)c1cc(-c2nn(C)c(C(F)(F)F)c2Cl)c(F)cc1Cl (stereo not drawn) [Compound 140] | 70% | 70% | 90% | 60% | 70% | 80% | 0% | 0% | 30% | 70% | 90% | 100% | 100% | 100% | 90% | 100% | 10% | 100% | 100% | 100% | –
CCOC(=O)C(C)OC(=O)c1cc(-c2nn(C)c(C(F)(F)F)c2Cl)c(F)cc1Cl (stereo not drawn) [Compound 138, 2-Chloro-5-(4-chloro-1-methyl-5-(trifluoromethyl)-1H-pyrazol-3-yl)-4-fluorobenzoic acid, 2-ethoxy-1-methyl-2-oxoethyl ester] | 100% | 30% | 100% | 90% | 100% | 100% | 20% | 50% | 40% | 100% | 100% | 100% | 100% | 100% | 100% | 100% | 20% | 100% | 100% | 100% | –
COC(=O)C=Cc1cc(-c2nn(C)c(C(F)(F)F)c2Cl)c(F)cc1Cl [Compound 128, 3-(2-chloro-5-(4-chloro-1-methyl-5-(trifluoromethyl)-1H-pyrazol-3-yl)-4-fluorophenyl)propenoic acid, methyl ester] | 70% | 30% | 100% | 0% | 100% | 70% | 0% | 0% | 0% | 80% | 90% | 100% | 100% | 100% | 100% | 100% | 20% | 50% | 30% | 100% | –
CCS(=O)(=O)Nc1cc(-c2nn(C)c(C(F)(F)F)c2Cl)c(Cl)cc1Cl [Compound 92] | 20% | 0% | 90% | 0% | 80% | 20% | 0% | 0% | 0% | 80% | 80% | 40% | 100% | 50% | 80% | 80% | 20% | 30% | 30% | 100% | –
